Reference: US7129215B2, “Tripeptide and tetrapeptide thioethers” (Telik, Inc., priority 2005, dated 2006)
pIC50: −log10 of the molar value. Read-outs that look alike come from different tables or passages of the source. *1 amine or outer side, *2 acyl side, *3 side chain or, on linkers, in order; H or OH if unused. Where a SMILES comes first, the peptide text is derived from it. [ ]: non-standard residue; d: D form. The star is where a group is joined. γGlu = O=C(O)[C@H](CCC(=O)[*:2])N[*:1]; dPhg = N[C@@H](C(=O)O)c1ccccc1; Bn = c1ccc(C*)cc1

Assays:
[1] = target: T1, Recombinant human GST P1-1 (Homo sapiens, UniProt P09211); experiment: Inhibition of glutathione S-transferase isoenzyme GST P1-1; format: biochemical
T1 construct: purchased EMD Biosciences, Inc., San Diego, Calif., U.S.A
T1 sequence (P09211 2-210 limits assumed): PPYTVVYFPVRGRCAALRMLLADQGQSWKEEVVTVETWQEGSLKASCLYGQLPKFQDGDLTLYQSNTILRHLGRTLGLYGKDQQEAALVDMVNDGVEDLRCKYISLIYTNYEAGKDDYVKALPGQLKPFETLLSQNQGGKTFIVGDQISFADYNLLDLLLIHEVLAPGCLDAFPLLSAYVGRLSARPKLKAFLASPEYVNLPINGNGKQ
Protocol: (§1) Inhibition of glutathione S-transferase isoenzymes.
(§2) For each assay, the test compound and GSH were added to the isoenzyme. Immediately after the addition of CDNB solution to the isoenzyme/compound/GSH solution, the absorbance at 340 nm was recorded continuously for 5 min on a SpectraMax plate reader (Molecular Devices, Inc., Sunnyvale, Calif., U.S.A.). The GST inhibitory activity of each compound was calculated from the slopes of the absorbance/time curves at the various concentrations of test compound. All assays were conducted in duplicate wells, with DMSO control, with the final DMSO concentration maintained at 2%.

[2] = target: T2, Recombinant human GST A1-1 (Homo sapiens, UniProt P08263); experiment: Inhibition of glutathione S-transferase isoenzyme GST A1-1; format: biochemical
T2 construct: purchased EMD Biosciences, Inc., San Diego, Calif., U.S.A
T2 sequence (P08263 1-222): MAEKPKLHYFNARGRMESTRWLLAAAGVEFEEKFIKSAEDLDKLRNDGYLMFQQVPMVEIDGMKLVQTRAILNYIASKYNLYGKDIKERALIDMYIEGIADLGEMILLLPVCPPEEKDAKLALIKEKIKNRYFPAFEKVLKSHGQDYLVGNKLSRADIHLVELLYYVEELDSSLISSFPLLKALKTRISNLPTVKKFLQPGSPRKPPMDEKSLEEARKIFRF
Protocol: as §1, §2

[3] = target: T3, Recombinant human GST M1-1 (Homo sapiens, UniProt P09488); experiment: Inhibition of glutathione S-transferase isoenzyme GST M1-1; format: biochemical
T3 construct: purchased EMD Biosciences, Inc., San Diego, Calif., U.S.A
T3 sequence (P09488 2-218 limits assumed): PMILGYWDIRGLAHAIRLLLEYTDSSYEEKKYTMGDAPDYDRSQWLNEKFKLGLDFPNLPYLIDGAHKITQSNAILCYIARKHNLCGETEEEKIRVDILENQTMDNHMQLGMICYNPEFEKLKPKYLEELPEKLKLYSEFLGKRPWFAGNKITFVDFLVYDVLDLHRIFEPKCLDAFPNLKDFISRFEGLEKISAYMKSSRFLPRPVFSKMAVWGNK
Protocol: as §1, §2

GSTπ = target: T4, GSTπ (Homo sapiens, UniProt P09211); experiment: GSTπ immunoprecipitation assay in HL60 cells; format: cell-based; settings: HL-60, read-out: GSTπ inhibition, %
T4 construct: endogenous in cells; host or cells: HL-60 (human promyeloid myelocytic leukemia)
T4 sequence (P09211 2-210 limits assumed): as the sequence (P09211 2-210 limits assumed) above
Protocol: In vitro example 3. GSTπ immunoprecipitation assay. This example illustrates the beneficial effects of compounds of this invention in causing GSTπ immunoprecipitation. […] HL60 cells were seeded at 6×10^5 cells/mL in 20 mL RPMI-1640 medium supplemented with 10% fetal bovine serum, 1 mM glutamine and 20 μM gentamycin in a T75 flask and cultured overnight in 5% CO2 atmosphere at 37° C. […] Following the treatment, the cells were collected by centrifugation and washed twice with phosphate-buffered saline. The cell pellets were resuspended in 1 mL lysis buffer (50 mM Tris, pH 8.0, 120 mM NaCl, 0.5% NP-40 surfactant, 100 mM NaF; to which protease and phosphatase inhibitors (Roche Diagnostics, Indianapolis, Ind., U.S.A.) had been added before use) and incubated with gentle agitation for 30 minutes at 4° C. The cell lysates were cleared by centrifugation at 13,000 rpm for 10 minutes to remove cell debris. […] Following overnight incubation at 4° C., 30 μL of Protein A/G agarose beads (Pierce, Rockford, Ill.) were added to the mixture and incubated for 1 hour at 4° C. […] GSTπ protein bands were visualized and band intensity quantified on Odyssey infrared scanner (Li-Cor, Lincoln, Nebr., U.S.A.). The band intensity from a compound treatment was compared to its corresponding DMSO control and expressed as percent inhibition.

[4] = target: T1, Recombinant human GST P1-1; settings: background statement; read-out: GST P1-1 IC50 (related art statement); cited from earlier work
[5] = system: HL-60 human leukemia cell line; experiment: Cytotoxicity in HL-60 cells (CellTiter-Glo); settings: read-out: HL-60 CC50 (concentration that causes 50% growth inhibition); diethyl ester compounds (1B to 12B, TLK199); 72 hours
Protocol: Cytotoxicity in HL-60 cells.
The cells were then incubated for 72 hours (approximately three doubling times). The cells were then harvested by centrifugation (1200 rpm for 5 min at 20° C.), and 100 μL of the culture supernatant was removed and replaced by the same volume of the CellTiter-Glo reagent. After incubation for 10 minutes at room temperature with constant mixing, the plate was read with a luminometer, with the number of live cells being proportional to the observed luminescence. All assays were conducted in triplicate wells, with DMSO solvent control.

HL-60 cells [6] = experiment: Enhancement of differentiation of HL-60 cells (CD11b expression, flow cytometry); format: cell-based, human; settings: diethyl ester compounds; 24 hours; CD11b expression vs DMSO control
Protocol: Some of the diethyl ester compounds of this invention were also tested for their ability to enhance the differentiation of HL-60 cells. This illustrates the beneficial effect of the compounds of this invention in stimulating differentiation of the HL-60 human leukemia cell line in vitro. […] The cells were harvested by centrifugation (1250 rpm for 5 min at 20° C.) and washed with 2 mL ice-cold phosphate-buffered saline (PBS) containing 2% FBS, then stained with 10 μL phycoerythrin-conjugated anti-CD11b antibody or 10 μL phycoerythrin-conjugated isotype control antibody. After standing for 30 min on ice, the cells were re-suspended in 2 mL ice-cold PBS containing 2% FBS. The cells were harvested by centrifugation (1250 rpm for 5 min at 20° C.) and resuspended in 0.4 mL PBS containing 2% FBS. The specific cell surface expression of CD11b, a marker for granulocytes and monocytes, was detected by flow cytometry using a FACSCalibur analyzer (BD Biosciences). All assays were conducted in triplicate, with DMSO control. The extent of differentiation was expressed as a multiple of the signal from the DMSO control.

HL-60 cells [7] = settings: background statement; cited from earlier work
[8] = both in vitro and in vivo; cited from earlier work
[9] = system: hematopoietic progenitor cells; settings: normal human peripheral blood; cited from earlier work
[10] = normal animals and animals depleted by cisplatin or fluorouracil; cited from earlier work
[11] = Phase II, MDS, interim results; cited from earlier work

## N[C@@H](CCC(=O)N[C@@H](CSCc1ccccc1)C(=O)N[C@@H](C(=O)O)c1ccccc1)C(=O)O [TLK117, L-γ-glutamyl-S-(phenylmethyl)-L-cysteinyl-D-phenylglycine] (γGlu-Cys(Bn)-[dPhg]-OH)
[1]
  pIC50: 6.39
[2]
  pIC50: 4.77
[3]
  pIC50: 4.15
GSTπ
  inhibition at 20 µM: 90%
[4]
  pIC50: ~6.40

## N[C@@H](CCC(=O)N[C@@H](CSCc1ccc(Cl)cc1)C(=O)N[C@@H](C(=O)O)c1ccccc1)C(=O)O [TLK137]
[1]; diacid compounds (1A to 12A, TLK117, TLK137), GSH and CDNB at 2×Km, pH 6.5
  pIC50: 7.28
[2]; diacid compounds, GSH and CDNB at 2×Km, pH 6.5, read-out: GST A1-1 IC50
  pIC50: 5.00
[3]; diacid compounds, GSH and CDNB at 2×Km, pH 6.5, read-out: GST M1-1 IC50
  pIC50: 5.19
[5]
  CC50: 10 µM

## CCOC(=O)[C@@H](N)CCC(=O)N[C@@H](CSCc1ccccc1)C(=O)N[C@@H](C(=O)OCC)c1ccccc1 [TLK199]
HL-60 cells [6]
  Enhancement of differentiation of HL-60 cells: enhances differentiation
HL-60 cells [7]
  Differentiation of HL-60 promyelocytic leukemia cells in vitro: induce the differentiation
[8]
  Potentiation of the activity of cytotoxic agents: potentiate the activity of cytotoxic agents
[9]
  Colony formation of hematopoietic progenitor cells: stimulate colony formation of all three lineages
[10]
  White blood cell production: increase white blood cell production
[11]
  Hematologic improvement: multilineage hematologic improvement
  Tolerability: well tolerated
